Results from US20220054658A1, “CONJUGATES” (Transfection Holdings Limited, priority 2018, published 2022).
Entries after “also recorded” stand apart in the source; their conditions may differ.

Tests used:
[1] = test system: mixed culture of wild type nematodes (roundworms, tape worms and flukes); experiment: Nematode testing: mixed culture of wild type nematodes; type: in vivo; conditions: 20 h incubation
Procedure: A mixed culture of wild type nematodes (roundworms, tape worms and flukes), obtained from Massey University's sheep farm, were incubated for 20 h with compound 14, compound and commercially available ivermectin B1a, as a control. The protocol followed is the same as the C. elegans protocol used previously.

[2] = test system: C. elegans; experiment: Conjugate uptake in C. elegans (dye and praziquantel conjugates, fluorescence microscopy); type: in vivo, Caenorhabditis elegans; conditions: 50 μM
Procedure: Nematode Growth Media (NGM) plates containing C. elegans were washed with 1.0-1.5 mL of standard M9 buffer and the washes were collected in an Eppendorf tube. The liquid containing the C. elegans was then spun for 1 min at room temperature at 10,000 rpm. The supernatant was removed, and fresh M9 buffer was added (500 μL) to generate a new stock solution of M9 buffer containing the C. elegans.
A C. elegans suspension (100 μL) was added a defined amount of M9 buffer (determined by the final desired concentration of compound to be tested: 399 μL in the case of the BODIPY tagged derivatives) contained within a separate Eppendorf tube. To this was then added a 25 mM solution of the compound in DMSO (1 μL). The resulting suspension was mixed using a vortex instrument.
The resulting mixture was incubated at room temperature for 2 to 4 h. in the dark (using aluminium foil to screen the tube, which was also stored in a cabinet).
Other samples were incubated overnight. Here, OP50 bacteria (3 μL) were added to the worms for feeding purposes, and the worms were kept in the dark at 20° C.
After the incubation, the tube contents were mixed gently by hand (typically by simple rotation of the tube), so as to achieve a homogenous suspension. A sample of the suspension (250 μL) was taken and mixed with M9 buffer (500 μL). The resulting suspension was placed in a centrifuge and spun at room temperature at 10,000 rpm for 1 min. The supernatant was removed, and the washing process was repeated twice more, each time using further quantities of fresh M9 buffer (500 μL each time). After the final washing sufficient supernatant was removed so as to leave a final sample volume of approximate 30 μL.
A 1.5% agarose solution in water was pre-warmed for 60 to 90 s. in a standard household style microwave (set to Power 4). Two drops of this solution was removed and placed on a glass slide. The glass slide was covered with a second glass slide. After 1 min., the slides were slid carefully apart, with the agarose remaining on one of the slides. Onto this slide was placed an aliquot of the final C. elegans solution (15 to 20 μL). To this was added a 20 mM sodium azide solution (5 μL) to inhibit nematode mobility. Vaseline was then placed around the agarose area before replacing the second slide. The slides were not pressed together.
The nematodes were then analysed using a Zeiss Axiskop 2 Plus microscope with a Hamamatsu Orca-ER (CA 742-95) camera. The images were resolved using OpenLab on a Mac operating system.
Compounds 1-11 were evaluated after 3 h and overnight incubation at a 50 μM concentration using the general uptake protocol described for C. elegans.
In order to compare the ability of a conjugate to improve the uptake of the drug praziquantel, two praziquantel derivatives were generated. Praziquantel was tagged with a BODIPY fluorescent tag (compound 12) and incorporated into a conjugate of the invention (compound 13). Compounds 12 and 13 were evaluated at a concentration of 50 μM using the C. elegans uptake protocol described above for compounds 1-11. Microscopic readings were taken after 3, 24 and 72 h.

[3] = test system: L. passim strain PRA-403; experiment: Lotmaria passim parasite uptake test; type: cell-based; conditions: room temperature, 45 min
Procedure: 100 mM stock solutions of BODIPY derivatives were prepared with dimethylsulfoxide (DMSO). L passim strain PRA-403 (ATCC) was cultured in modified medium for C. bombi (Tognazzo et al.). The parasite culture was centrifuged, supernatant was removed and 500 μL of L passim medium with compound (final concentration 500, 100, 10 or 1 μM for BODIPY derivatives) or DMSO (0.1%) control was added. Incubated for 45 min at room temperature.
Uptake tests were performed at 1 μM and 100 μM final concentration of CJ-BODIPY derivatives. After incubation at room temperature for 45 min, fluorescence intensities were evaluated using a microplate reader.

[4] = test system: gastrointestinal system (crop, midgut and rectum) of adult honey bees; experiment: Honey bee gut uptake test; set-up: species or system Apis mellifera; conditions: 100 μM, 33° C., 45 min
Procedure: Honey bee (A. mellifera) hives were obtained and allowed to feed ab libitum spring to autumn. During the winter period, pollen mixed with 50% (v/v) sucrose was added to the honey bee hives in order to provide sufficient food. Honey bees were dissected and gastrointestinal system was removed including the crop, midgut and rectum, and added immediately to 500 μL of the delivery vehicle to be tested sample diluted with PBS at 100 μM final concentration or DMSO (0.1%) control. The mixture was incubated for 45 min at 33° C.
The gastrointestinal system (crop, midgut and rectum) of adult honey bees was extracted, and incubated with derivatives 1, 2, 8 and 11 at 100 μM and 33° C. for 45 min.

[5] = test system: M. tuberculosis strain H37Rv; experiment: Uptake test in M. tuberculosis; type: cell-based, Mycobacterium tuberculosis; conditions: 50 μg/mL (~80 μM), room temperature, 45 min
[6] = test system: B. bovis Texas strain; experiment: Short-term uptake test in B. bovis infected RBCs (confocal microscopy); conditions: 25 μM, 37° C., 45 min, ~5% PPE
Procedure: The parasite culture was centrifuged and washed once with GIT medium. RBC's were pellet down, and 20 μl infected RBC mixture (10 μl packed infected RBC+10 μl GIT) was prepared. Then, 180 μl GIT medium with compound the compound to be evaluated (final concentration 25 μM for BODIPY derivatives and 100 μM for phiLOV derivatives) or DMSO (0.1%)/PBS control was added. The samples were incubated for 45 min at 37° C. (Samples were stained 1 μg/mL diluted Hoechst 33342 in GIT medium). After incubation, the samples were centrifuged and the pellet was washed with GIT medium (3×). A final solution of 50% haematocrit infected RBC mixture was transferred to slides to be observed by confocal laser microscopy (Nikon A1).
Uptake experiments were performed by incubating the parasite (˜5% Parasitized Erythrocytes (PPE)) with each derivative at 25 μM and 37° C. for 45 min. After incubation, the fluorescence intensities were calculated from confocal microscope images.
The phiLOV double mutant (R475G, K476C) was used to generate derivatives P11, P1, P8, and P3 which were tested for uptake in B. bovis Texas strain using phiLOV as a control. The derivatives and the control were incubated at 100 μM and 37° C. for 45 min. After incubation, the samples were analysed under confocal microscopy using Hoeschst 33342 (Thermofisher) as co-stain.

[7] = test system: P. falciparum; experiment: Plasmodium falciparum testing: uptake by infected and non-infected red blood cells; type: cell-based; conditions: 25 μM, 45 minutes, 37° C., synchronised stage and mix-stage cultures
Procedure: Compounds 1, 5, 9, 10 and 11 were tested for uptake in both synchronised stage and mix-stage cultures at 25 μM concentrations.

[8] = test system: T. brucei; experiment: Trypanosoma brucei testing: uptake; type: cell-based; conditions: 10-25 μM, 45 minutes, 37° C.
[9] = test system: T. annulata; experiment: Theileria annulata testing: uptake; type: cell-based; conditions: 1 hour, 37° C.
Procedure: T. annulata were cultured using RPMI 1640 with 10% Albumax II (Thermo-Fisher) serum. A standard hemocytometer was used to calculate the concentration of cells in the parent culture. […] For each compound and concentration to be tested, 2 mL of the culture were centrifuged at 1,000 rpm for 5 minutes. The medium was removed before the cells were resuspended in 950 μL of complete medium containing the compound to be tested at the desired concentration. This was prepared from a 100 mM stock solution of compound in DMSO. Once the cells were resuspended they were transferred to a 5 well plate (1 mL capacity per well). They were then incubated for 1 hour at 37° C. in an atmosphere of 5% CO2 in air. After the incubations were complete the contents of each well were transferred to a 10 mL centrifuge tube. Cold RPMI 1640 (Thermofisher) or HBSS added to obtain a volume of 5 mL. The suspension was then centrifuged at 1,000 rpm and at 4° C. for 5 minutes. […] After the final washing the pellet of cells was resuspended in a minimum amount of RPMI 1640 and then spotted onto a glass slide. The slide was then covered with a cover slip and analysed using Olympus BX60 UV microscope system with a Spot RT3 camera and Spot Image software with a FITC fluorescent filter.

| Compound | concentration at which nematodes showed paralysis [1] | uptake: location of fluorescence in C. elegans ([2]; 3 h incubation) | uptake: location of fluorescence in C. elegans ([2]; 20 h / overnight incubation) | fluorescence in honey bee gut (crop, midgut, rectum) [4] | uptake in M. tuberculosis (fluorescence intensity / microscopy) [5] | uptake compared to compound 1 (% less) [6] | uptake compared to other compounds ([2]; 20 h incubation) | uptake by infected and non-infected red blood cells [7] | uptake in T. annulata [9] | also measured |
| --- | --- | --- | --- | --- | --- | --- | --- | --- | --- | --- |
| 4″-O—[(R,Z)-3-(2,2,5,5-Tetramethyl-1,3-dioxane-4-carboxamido)acrylate]avermectin B1a [Compound 14] | 5 µM |  |  |  |  |  |  |  |  | activity against nematodes relative to ivermectin B1a [1]: enhanced activity against nematodes relative to commercially available ivermectin B1a |
| CC1=CC(C)=[N+]2C1=Cc1ccc(CCCn3cc(CCNC(=O)/C=C\NC(=O)[C@H]4OC(C)(C)OCC4(C)C)nn3)n1[B-]2(F)F [Compound 2, (Z)—N-((((3-[4,4-Difluoro-5,7-dimethyl-4-bora-3a,4a-diaza-s-indacene-3-yl]propyl)-1H-1,2,3-triazol-4-yl)ethylamino)-3-oxoprop-1-enyl)-2,2,5,5-tetramethyl-1,3-dioxane-4-carboxamide] |  | traces of compound 2 were observed in the pharynx, gut cells and gut lumen of the larval stages | fluorescence was localised in the gut cells, gut lumen and to a lesser extent within the pharynx of the larvae | slight fluorescence in midgut and rectum, but none in the crop; also recorded: localised on the surface of the gut, but not inside of it | preferred over their S counterparts; also recorded: highest fluorescence signals; also recorded: fluorescence is localised at the poles | 90% |  |  |  | uptake in L. passim (fluorescence intensity, microplate reader) ([3]; 1 μM and 100 μM): highest reading amongst all the compounds tested; uptake in L. passim (fluorescence microscopy) ([3]; 500 μM): exhibited fluorescence in the parasite's cytosol, with the derivative forming fluorescence dots; fluorescence intensity compared to compound 1 [5]: around 2.5 times |
| CC1=CC(C)=[N+]2C1=Cc1ccc(CCCn3cc(CCNC(=O)CCNC(=O)[C@H](O)C(C)(C)CO)nn3)n1[B-]2(F)F [Compound 9, (R)—N-((((3-[4,4-Difluoro-5,7-dimethyl-4-bora-3a,4a-diaza-s-indacene-3-yl]propyl)-1H-1,2,3-triazol-4-yl)ethylamino)-3-oxopropyl)-2,4-dihydroxy-3,3-dimethylbutanamide] |  | traces of compound 9 were visible in the get cells and to a lesser extent 30 in the pharynx of both the larvae and the adult nematodes | small amounts of fluorescence could be detected in the gut cells of both larval and adult stages |  |  |  | the amount of fluorescence was lower than the enamide derivatives, compounds 1 to 8 | taken up very quickly by both infected and non-infected erythrocytes, with very little difference in uptake between the two sets of red blood cells | taken up by T. annulata; also recorded: taken up more rapidly and fluorescence can be detected at lower concentrations albeit it is also present in the infected lymphocyte | uptake compared to other compounds ([2]; 3 h incubation): the amount of fluorescence was lower than the enamide derivatives, compounds 1 to 8; uptake in T. brucei [8]: taken up much more rapidly and in much higher concentrations than compound 5; also recorded: spread throughout the cell |
| CC1=CC(C)=[N+]2C1=Cc1ccc(CCCn3cc(CCNC(=O)CCNC(=O)[C@@H]4OC(C)(C)OCC4(C)C)nn3)n1[B-]2(F)F [Compound 10, (R)—N-((((3-[4,4-Difluoro-5,7-dimethyl-4-bora-3a,4a-diaza-s-indacene-3-yl]propyl)-1H-1,2,3-triazol-4-yl)ethylamino)-3-oxopropyl)-2,2,5,5-tetramethyl-1,3-dioxane-4-carboxamide] |  | traces of compound 10 were detected in the gut cells and gut lumen of the larvae; also recorded: also visible to a lesser degree in the pharynx of the larvae | fluorescence was visible in the gut cells and in a smaller amount in the pharynx of the larval stages |  | minimal uptake |  | comparable with the enamide compounds showing the least uptake | not taken up to any visible extent | very limited uptake |  |
| CC1=CC(C)=[N+]2C1=Cc1ccc(CCCN=[N+]=[N-])n1[B-]2(F)F [Compound 11, 3-Azido[4,4-difluoro-5,7-dimethyl-4-bora-3a,4a-diaza-s-indacene-3-yl]propane, reference compound] |  | slight fluorescence after 3 h, focalized in the gut lumen and gut cells | no significant increase in fluorescence even after 20 h incubation | showed only autofluorescence |  | 90% |  | diffused into every red blood cell (both infected and non-infected) | diffused indiscriminately |  |
| CC[C@H](C)[C@H]1O[C@]2(CC[C@@H]1C)C[C@@H]1C[C@@H](C/C=C(\C)[C@@H](O[C@H]3C[C@H](OC)[C@@H](O[C@H]4C[C@H](OC)[C@@H](O)[C@H](C)O4)[C@H](C)O3)[C@@H](C)/C=C/C=C3\CO[C@@H]4[C@H](O)C(C)=C[C@@H](C(=O)O1)[C@]34O)O2 [ivermectin B1a, reference compound] | 50 µM |  |  |  |  |  |  |  |  |  |
